Laboratory results reported in patent US20240115726A1, “HYDRAZONE-BASED SAPONIN DERIVATIVES” (priority 2020, published 2024).

Tests used:
HeLa cells [1] = assay: Endosomal escape enhancing activity: saponin titrated with fixed non-effective toxin conjugate, cell killing (MTS)
Description: (§1) Cell viability was determined by an MTS-assay, performed according to the manufacturer's instruction (CellTiter 96® AQueous One Solution Cell Proliferation Assay, Promega). Briefly, the MTS solution was diluted 20× in DMEM without phenol red (PAN-Biotech GmbH) supplemented with 10% FBS (PAN-Biotech GmbH). The cells were washed once with 200 μL PBS per well, after which 100 μL diluted MTS solution was added per well. The plate was incubated for approximately 20-30 minutes at 37° C. […] For quantification the background signal of ‘medium only’ wells was subtracted from all other wells, before the ratio of untreated/treated cells was calculated, by dividing the background corrected signal of untreated wells over the background corrected signal of the treated wells.

Human Red blood cells = assay: Hemolysis assay; format: cell-based; details: for hemolytic activity, comparison in words: fresh Human Red blood cells, FIG. 5
Description: Red blood cells (RBCs) were isolated from a buffy coat using a Ficoll gradient. The obtained RBC pellet (→4-5 ml) was washed 2× with 50 ml DPBS (without Ca^2+/Mg^2+, PAN-Biotech GmbH). Cells were pelleted by centrifugation for 10 min, 800×g at RT. RBC were counted and resuspended at 500,000,000 c/ml in DPBS (without Ca^2+/Mg^2+), based on total cell count. […] For positive lysis control a 0.02% Triton-X100 solution was prepared in DPBS^+/+. Of all compound solutions 135 μl was dispensed/well in a 96 well V-bottom plate. To this 15 μl RBC suspension was added and mixed shortly (10 sec-600 rpm). The plate was incubated 30 min at RT, with gentle agitation. Afterwards the plate was spun for 10 min at 800×g to pellet the RBC and 100-120 μl supernatant was transferred to a standard 96 wp. Subsequently, the OD at 405 nm was measured on a Thermo Scientific Multiskan FC plate reader (Thermo Scientific). For quantification the background signal of ‘DPBS^+/+ only’ wells was subtracted from all other wells before the percentage of hemolysis was calculated in comparison to 0.02% Triton-X100, by dividing the background corrected signal of treated wells over the background corrected signal of the 0.02% Triton-X100 wells (×100).

A431 cells [2] = assay: Toxicity of saponin alone, cell viability (MTS); format: cell-based; details: Homo sapiens, A-431
Description: Cell viability was determined by an MTS-assay, performed according to the manufacturer's instruction (CellTiter 96® AQueous One Solution Cell Proliferation Assay, Promega). Briefly, the MTS solution was diluted 20× in DMEM without phenol red (PAN-Biotech GmbH) supplemented with 10% FBS (PAN-Biotech GmbH). The cells were washed once with 200 μL PBS per well, after which 100 μL diluted MTS solution was added per well. The plate was incubated for approximately 20-30 minutes at 37° C. Subsequently, the optical density at 492 nm was measured on a Thermo Scientific Multiskan FC plate reader (Thermo Scientific). For quantification the background signal of ‘medium only’ wells was subtracted from all other wells, before the ratio of untreated/treated cells was calculated, by dividing the background corrected signal of untreated wells over the background corrected signal of the treated wells.

A431 cells [3] = assay: Endosomal escape enhancing activity: saponin titrated with fixed non-effective toxin conjugate, cell killing (MTS)
Description: as §1

HeLa cells [4] = assay: Toxicity of saponin alone, cell viability (MTS); format: cell-based; details: for toxicity, comparison in words: HeLa and A431 cells, FIG. 4; for IC50: Homo sapiens, HeLa cells, saponin alone
Description: Next, toxicity was determined. […] SO1861-EMCH (blocked): the maleimide functional group is conjugated with mercapto-ethanol.

[5] = Homo sapiens, HeLa, read-out: IC50 nM (Activity; +5 pM EGFdianthin)
[6] = Homo sapiens, A-431, read-out: IC50 nM (Activity; +5 pM EGFdianthin)

CC(=O)OC1C(C)OC(OC2C(C)OC(OC(=O)[C@]34CCC(C)(C)CC3C3=CCC5[C@@]6(C)CC[C@H](OC7OC(C(=O)O)C(O)C(OC8OCC(O)C(O)C8O)C7OC7OC(CO)C(O)C(O)C7O)CC6[C@@](C)(/C=N/NC(=O)CCOCCOCCOCCOCCN6N=NC7c8ccccc8CN(C(=O)CCC(=O)ON8C(=O)CCC8=O)c8ccccc8C76)C[C@@]5(C)[C@]3(C)C[C@H]4O)C(OC3OC(C)C(OC4OCC(O)C(OC5OC(CO)C(O)C(O)C5O)C4O)C(O)C3O)C2O)C(O)C1OC1OCC(O)C(O)C1O (stereo partly drawn) showed an IC50 (HeLa cells [1]; [5]) of 4000 nM, an IC50 (HeLa cells [1]; read-out: IC50 (activity; +10 pM Cetuximab-saporin), HeLa cells, +10 pM Cetuximab-saporin) of 2000 nM and an IC50 (HeLa cells [1]; read-out: IC50 (activity; +50 pM Trastuzumab-saporin), HeLa cells, +50 pM Trastuzumab-saporin) of 3000 nM. The IC50 (Human Red blood cells; Homo sapiens, Erythrocyte, red blood cells, Table 3) was over 1000 µM, the “hemolytic activity, comparison in words” value (Human Red blood cells) was “comparable hemolytic activity” and the IC50 (A431 cells [2]) was over 30 µM. The IC50 (A431 cells [3]; [6]) was 3000 nM, the IC50 (A431 cells [3]; read-out: IC50 (activity; +10 pM Cetuximab-saporin), A431 cells, +10 pM Cetuximab-saporin) was 2000 nM and the “toxicity, comparison in words” value (HeLa cells [4]) was “comparable with the toxicity observed with SO1861-EMCH”. For the same compound, the IC50 (HeLa cells [4]) was over 100 µM.

CC(=O)OC1C(C)OC(OC2C(C)OC(OC(=O)[C@]34CCC(C)(C)CC3C3=CCC5[C@@]6(C)CC[C@H](OC7OC(C(=O)O)C(O)C(OC8OCC(O)C(O)C8O)C7OC7OC(CO)C(O)C(O)C7O)[C@@](C)(C=O)C6CC[C@@]5(C)[C@]3(C)C[C@H]4O)C(OC3OC(C)C(OC4OCC(O)C(OC5OC(CO)C(O)C(O)C5O)C4O)C(O)C3O)C2O)C(O)C1OC1OCC(O)C(O)C1O (stereo partly drawn) [SO1861, reference compound] was tested, and the “endosomal escape enhancing activity, comparison in words” value (HeLa cells [1]; HeLa and A431 cells, with EGFdianthin, Cetuximab-saporin or Trastuzumab-saporin, FIG. 1-3) was “strongest activity”, the IC50 (HeLa cells [1]; [5]) was 500 nM and the IC50 (A431 cells [3]; [6]) was 300 nM. The “toxicity, comparison in words” value (HeLa cells [4]) was “strongest toxicity” and the IC50 (HeLa cells [4]) was 9 µM.

CC(=O)OC1C(C)OC(OC2C(C)OC(OC(=O)[C@]34CCC(C)(C)CC3C3=CCC5[C@@]6(C)CC[C@H](OC7OC(C(=O)O)C(O)C(OC8OCC(O)C(O)C8O)C7OC7OC(CO)C(O)C(O)C7O)[C@@](C)(/C=N/NC(=O)CCCCCN7C(=O)C=CC7=O)C6CC[C@@]5(C)[C@]3(C)C[C@H]4O)C(OC3OC(C)C(OC4OCC(O)C(OC5OC(CO)C(O)C(O)C5O)C4O)C(O)C3O)C2O)C(O)C1OC1OCC(O)C(O)C1O (stereo partly drawn) [SO1861-EMCH, reference compound] was tested, and the IC50 (HeLa cells [1]; [5]) was 4000 nM, the “hemolytic activity, comparison in words” value (Human Red blood cells) was “comparable hemolytic activity” and the IC50 (A431 cells [2]) was over 30 µM.
